We go through six molecules from patent US7815942B2, “Rasagiline formulations of improved content uniformity” (Teva Pharmaceutical Industries, Ltd., priority 2005, dated 2010).

Data set [1] is described as follows: Particle size distribution by Malvern laser diffraction (Mastersizer S). It is filed as physicochemical. The settings on record: average of two measurements. On the procedure: Many analytical tools are available to determine PSD. In the early development stage, the analysis of PSD was performed through microscopic and sieve analysis. Laser diffraction was chosen as the final analytical method for measuring the PSD. Because the large particles were of major concern, the important characteristics of the PSD were the d(0.9), which is the size, in microns, below which 90% of the particles by volume are found, and the d(0.1), which is the size, in microns, below which 10% of the particles by volume are found.
R(+)PAI mesylate samples before milling contain large, irregular, plate-shaped particles of various sizes (See FIG. 1). PSDs of four different batches were measured before milling and after milling. The PSDs were measured using Malvern Laser Diffraction, using the Mastersizer S model. Laser diffraction relies on the fact that diffraction angle of light is inversely proportional to particle size. Properties of particles are measured and interpreted as measurements of a sphere (a sphere being the only shape that can be described by one unique number). In addition, laser diffraction calculates a particle size distribution based around volume terms, thus eliminating particle count from the determination of particle size. The Masterizer S model measures particles using a single technique and a single range setting.
The values in the table represent averages of two measurements. Each measurement was taken after 3 minutes of recirculation with the speed control at the 14 hour position. The dilution medium was a 1% solution of dioctyl sulfosuccinate sodium salt in n-hexane. The concentration of drug substance used in the measurements was between 0.05% and 0.35% by volume. The results were confirmed with microscopic observation. For optical microscopy, an emulsion or suspension, diluted or undiluted, was mounted on a slide or ruled cell. The microscope eyepiece was fitted with a micrometer by which the size of the particles may be estimated.
D(0.1) is the particle size, in microns, below which 10% by volume distribution of the population is found, and d(0.9) is the particle size, in microns, below which 90% by volume distribution of the population is found. […]

The conditions of data set [2]: 18-year study, subjects, cited from earlier work.
The conditions of data set [3]: compared with the microcrystalline form; cited from earlier work.

Read-outs that look alike come from different tables or passages of the source.

As for `C#CCN[C@@H]1CCc2ccccc21.CS(=O)(=O)O` [Batch D197/197], in data set [1] (listed as D197/197), the “d (0.1) after milling” value turned out to be 14 microns, the “d (0.9) after milling” value worked out at 168 microns, the “d (0.1) before milling” value was determined as 21 microns and the “d (0.9) before milling” value stood at 443 microns.

As to `O=C1CN(/N=C/c2ccc([N+](=O)[O-])o2)C(=O)N1` [microcrystalline form, Nitrofurantoin], the “negative side effects (adverse events) such as nausea and gastro-intestinal problems” value in data set [2] is “produces negative side effects”.

As for `C#CCN[C@@H]1CCc2ccccc21.CS(=O)(=O)O` [Batch D297/297], in data set [1] (listed as D297/297), the “d (0.1) after milling” value stood at 11 microns, the “d (0.9) after milling” value is recorded as 160 microns, the “d (0.1) before milling” value was 20 microns and the “d (0.9) before milling” value turned out to be 386 microns.

As for `C#CCN[C@@H]1CCc2ccccc21.CS(=O)(=O)O` [Batch D222/223], in data set [1] (listed as D222/223), the “d (0.1) after milling” value stood at 10 microns, the “d (0.9) after milling” value was determined as 156 microns, the “d (0.1) before milling” value stood at 18 microns and the “d (0.9) before milling” value is given as 573 microns.

For the molecule `C#CCN[C@@H]1CCc2ccccc21.CS(=O)(=O)O` [Batch D211/212], in data set [1] (listed as D211/212), the “d (0.1) after milling” value amounted to 16 microns, the “d (0.9) after milling” value stood at 189 microns, the “d (0.1) before milling” value is recorded as 104 microns and the “d (0.9) before milling” value is reported as 598 microns.

On to `O=C1CN(/N=C/c2ccc([N+](=O)[O-])o2)C(=O)N1` [macrocrystalline form of Nitrofurantoin, Nitrofurantoin], for which, in data set [3], the “dissolution and absorption rates” value was “slower”; the serum concentrations result is recorded as “lower”; the “time to achieve peak concentration in urine” value was “takes longer”. Moreover, in data set [2] (listed as macrocrystalline form), the “negative side effects (adverse events) such as nausea and gastro-intestinal problems” value was “did not manifest”.
